ChEMBL document CHEMBL1201862, “PubChem BioAssay data set” (2004)
Where a name gives a salt, the structure may show the parent alone.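 Five concentrations, 48 hours, 96-well plates. Abbreviation: GI50, concentration required for 50% inhibition of growth.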 The source made the active and inactive calls. Cut-off read from the data, not from the text of the source: active = GI50 up to about 1.1 µM and inactive = higher.

How the values were obtained:
Test in all cases: NCI tumour cell line growth inhibition, 48 h
[1] = tested on: A498
[2] = tested on: A549
[3] = tested on: CAKI-1
[4] = tested on: CCRF-CEM
[5] = tested on: COLO 205
[6] = tested on: DLD-1
[7] = tested on: DMS-114
[8] = tested on: DMS-273
[9] = tested on: EKVX
[10] = tested on: HCC 2998
[11] = tested on: HCT-116
[12] = tested on: HCT-15
[13] = tested on: HL-60
[14] = tested on: HOP-18
[15] = tested on: HOP-62
[16] = tested on: HOP-92
[17] = tested on: HT-29
[18] = tested on: IGROV-1
[19] = tested on: K562
[20] = tested on: KM-20L2
[21] = tested on: KM12
[22] = tested on: LOX IMVI
[23] = tested on: M19-MEL
[24] = tested on: MCF7
[25] = tested on: MOLT-4
[26] = tested on: Malme-3M
[27] = tested on: NCI-H226
[28] = tested on: NCI-H23
[29] = tested on: NCI-H460
[30] = tested on: NCI-H522
[31] = tested on: NCI/ADR-RES
[32] = tested on: OVCAR-3
[33] = tested on: OVCAR-4
[34] = tested on: OVCAR-5
[35] = tested on: OVCAR-8
[36] = tested on: RPMI-8226
[37] = tested on: RXF 393
[38] = tested on: SF-268
[39] = tested on: SF-295
[40] = tested on: SF-539
[41] = tested on: SK-MEL-28
[42] = tested on: SK-MEL-2
[43] = tested on: SK-MEL-5
[44] = tested on: SK-OV-3
[45] = tested on: SN12C
[46] = tested on: SNB-19
[47] = tested on: SNB-75
[48] = tested on: SNB-78
[49] = tested on: SW-620
[50] = tested on: U-251
[51] = tested on: UACC-257
[52] = tested on: UACC-62
[53] = tested on: UO-31
[54] = tested on: XF498
[55] = tested on: 786-0
[56] = tested on: ACHN
[57] = tested on: BT-549
[58] = tested on: DU-145
[59] = tested on: Hs-578T
[60] = tested on: LXFL 529
[61] = tested on: M14
[62] = tested on: MDA-MB-231
[63] = tested on: MDA-MB-435
[64] = tested on: MDA-N
[65] = tested on: PC-3
[66] = tested on: SR
[67] = tested on: T47D
[68] = tested on: TK-10

## O=S1(=O)C(=C(c2ccccc2)c2ccccc2)S(=O)(=O)c2ccccc21
[1]
  GI50: > 74.3 µM (inactive)
[2]
  GI50: > 100 µM (inactive)
[3]
  GI50: > 87.5 µM (inactive)
[4]
  GI50: > 100 µM (inactive)
[5]
  GI50: > 100 µM (inactive)
[6]
  GI50: > 100 µM (inactive)
[7]
  GI50: 65.3 µM (inactive)
[8]
  GI50: > 100 µM (inactive)
[9]
  GI50: > 100 µM (inactive)
[10]
  GI50: 97.1 µM (inactive)
[11]
  GI50: > 100 µM (inactive)
[12]
  GI50: > 100 µM
[13]
  GI50: > 100 µM (inactive)
[14]
  GI50: 51.6 µM (inactive)
[15]
  GI50: 23.2 µM (inactive)
[16]
  GI50: 20.6 µM (inactive)
[17]
  GI50: > 100 µM (inactive)
[18]
  GI50: > 95.5 µM (inactive)
[19]
  GI50: > 100 µM (inactive)
[20]
  GI50: > 100 µM (inactive)
[21]
  GI50: > 100 µM (inactive)
[22]
  GI50: > 100 µM (inactive)
[23]
  GI50: > 100 µM (inactive)
[24]
  GI50: 7.46 µM (inactive)
[25]
  GI50: > 100 µM (inactive)
[26]
  GI50: 53.1 µM (inactive)
[27]
  GI50: > 60.3 µM (inactive)
[28]
  GI50: > 63.2 µM (inactive)
[29]
  GI50: > 100 µM (inactive)
[30]
  GI50: > 100 µM (inactive)
[31]
  GI50: > 100 µM (inactive)
[32]
  GI50: > 57.9 µM (inactive)
[33]
  GI50: 83.6 µM (inactive)
[34]
  GI50: > 100 µM (inactive)
[35]
  GI50: > 100 µM (inactive)
[36]
  GI50: > 100 µM (inactive)
[37]
  GI50: 34.1 µM (inactive)
[38]
  GI50: > 72.6 µM (inactive)
[39]
  GI50: 33.8 µM (inactive)
[40]
  GI50: 27.5 µM (inactive)
[41]
  GI50: > 100 µM (inactive)
[42]
  GI50: > 100 µM (inactive)
[43]
  GI50: > 89.7 µM (inactive)
[44]
  GI50: > 56.5 µM (inactive)
[45]
  GI50: > 100 µM (inactive)
[46]
  GI50: > 58.1 µM (inactive)
[47]
  GI50: 20.2 µM (inactive)
[48]
  GI50: 39.8 µM (inactive)
[49]
  GI50: > 100 µM (inactive)
[50]
  GI50: 51.6 µM (inactive)
[51]
  GI50: > 100 µM (inactive)
[52]
  GI50: > 72.1 µM (inactive)
[53]
  GI50: > 100 µM (inactive)
[54]
  GI50: 24.7 µM (inactive)

## CNNCc1ccc(C(=O)NC(C)C)cc1 [PROCARBAZINE HYDROCHLORIDE]
[55]
  GI50: 254 µM (inactive)
[1]
  GI50: > 500 µM (inactive)
[2]
  GI50: 335 µM (inactive)
[56]
  GI50: > 500 µM (inactive)
[57]
  GI50: > 500 µM (inactive)
[4]
  GI50: 461 µM (inactive)
[5]
  GI50: > 500 µM (inactive)
[6]
  GI50: > 500 µM (inactive)
[8]
  GI50: > 500 µM (inactive)
[58]
  GI50: > 500 µM (inactive)
[9]
  GI50: > 500 µM (inactive)
[10]
  GI50: > 398 µM (inactive)
[11]
  GI50: > 500 µM (inactive)
[12]
  GI50: > 415 µM
[13]
  GI50: > 478 µM (inactive)
[14]
  GI50: 138 µM (inactive)
[15]
  GI50: 383 µM (inactive)
[16]
  GI50: 369 µM (inactive)
[17]
  GI50: > 474 µM (inactive)
[59]
  GI50: > 500 µM (inactive)
[18]
  GI50: > 404 µM (inactive)
[19]
  GI50: 410 µM (inactive)
[20]
  GI50: 380 µM (inactive)
[21]
  GI50: > 500 µM (inactive)
[22]
  GI50: > 486 µM (inactive)
[60]
  GI50: > 500 µM (inactive)
[61]
  GI50: > 500 µM (inactive)
[23]
  GI50: > 500 µM (inactive)
[24]
  GI50: > 486 µM (inactive)
[62]
  GI50: > 500 µM (inactive)
[63]
  GI50: > 379 µM (inactive)
[64]
  GI50: > 500 µM (inactive)
[25]
  GI50: 426 µM (inactive)
[26]
  GI50: > 457 µM (inactive)
[27]
  GI50: > 381 µM (inactive)
[28]
  GI50: > 500 µM (inactive)
[29]
  GI50: > 500 µM (inactive)
[30]
  GI50: > 500 µM (inactive)
[31]
  GI50: > 500 µM (inactive)
[32]
  GI50: > 472 µM (inactive)
[33]
  GI50: > 500 µM (inactive)
[34]
  GI50: > 439 µM (inactive)
[35]
  GI50: > 500 µM (inactive)
[65]
  GI50: > 500 µM (inactive)
[36]
  GI50: 465 µM (inactive)
[37]
  GI50: > 423 µM (inactive)
[38]
  GI50: > 500 µM (inactive)
[39]
  GI50: > 500 µM (inactive)
[40]
  GI50: > 500 µM (inactive)
[41]
  GI50: > 500 µM (inactive)
[42]
  GI50: > 500 µM (inactive)
[43]
  GI50: 385 µM (inactive)
[44]
  GI50: > 493 µM (inactive)
[45]
  GI50: > 500 µM (inactive)
[46]
  GI50: > 500 µM (inactive)
[47]
  GI50: 435 µM (inactive)
[48]
  GI50: > 500 µM (inactive)
[66]
  GI50: > 375 µM (inactive)
[49]
  GI50: > 500 µM (inactive)
[67]
  GI50: > 500 µM (inactive)
[68]
  GI50: > 500 µM (inactive)
[51]
  GI50: 450 µM (inactive)
[52]
  GI50: 366 µM (inactive)
[53]
  GI50: > 500 µM (inactive)
[54]
  GI50: > 500 µM (inactive)

## O=c1[nH]c(=O)n([C@H]2CCCO2)cc1F
[55]
  GI50: 984 µM (inactive)
[1]
  GI50: 501 µM (inactive)
[2]
  GI50: 446 µM (inactive)
[56]
  GI50: 977 µM (inactive)
[57]
  GI50: 4000 µM (inactive)
[3]
  GI50: 828 µM (inactive)
[4]
  GI50: 982 µM (inactive)
[5]
  GI50: 673 µM (inactive)
[6]
  GI50: 615 µM (inactive)
[7]
  GI50: 673 µM (inactive)
[8]
  GI50: 561 µM (inactive)
[58]
  GI50: 748 µM (inactive)
[9]
  GI50: 393 µM (inactive)
[10]
  GI50: 89.7 µM (inactive)
[11]
  GI50: 406 µM (inactive)
[12]
  GI50: 678 µM
[13]
  GI50: 644 µM (inactive)
[14]
  GI50: 692 µM (inactive)
[15]
  GI50: 547 µM (inactive)
[16]
  GI50: > 3120 µM (inactive)
[17]
  GI50: 649 µM (inactive)
[59]
  GI50: 3230 µM (inactive)
[18]
  GI50: 975 µM (inactive)
[19]
  GI50: 968 µM (inactive)
[20]
  GI50: 824 µM (inactive)
[21]
  GI50: 813 µM (inactive)
[22]
  GI50: 685 µM (inactive)
[61]
  GI50: 740 µM (inactive)
[23]
  GI50: 545 µM (inactive)
[24]
  GI50: 467 µM (inactive)
[62]
  GI50: > 2720 µM (inactive)
[63]
  GI50: 615 µM (inactive)
[64]
  GI50: 1200 µM (inactive)
[25]
  GI50: 830 µM (inactive)
[26]
  GI50: 493 µM (inactive)
[27]
  GI50: 625 µM (inactive)
[28]
  GI50: 759 µM (inactive)
[29]
  GI50: 146 µM (inactive)
[30]
  GI50: 769 µM (inactive)
[31]
  GI50: 923 µM (inactive)
[32]
  GI50: 684 µM (inactive)
[33]
  GI50: 2610 µM (inactive)
[34]
  GI50: 953 µM (inactive)
[35]
  GI50: 655 µM (inactive)
[65]
  GI50: 2510 µM (inactive)
[36]
  GI50: 385 µM (inactive)
[37]
  GI50: 769 µM (inactive)
[38]
  GI50: 986 µM (inactive)
[39]
  GI50: 918 µM (inactive)
[40]
  GI50: 262 µM (inactive)
[41]
  GI50: 830 µM (inactive)
[42]
  GI50: 719 µM (inactive)
[43]
  GI50: 845 µM (inactive)
[44]
  GI50: 681 µM (inactive)
[45]
  GI50: 838 µM (inactive)
[46]
  GI50: 3920 µM (inactive)
[47]
  GI50: 560 µM (inactive)
[48]
  GI50: > 1000 µM (inactive)
[66]
  GI50: 337 µM (inactive)
[49]
  GI50: 887 µM (inactive)
[67]
  GI50: > 465 µM (inactive)
[68]
  GI50: 764 µM (inactive)
[50]
  GI50: 957 µM (inactive)
[51]
  GI50: 951 µM (inactive)
[52]
  GI50: 569 µM (inactive)
[53]
  GI50: 869 µM (inactive)
[54]
  GI50: 762 µM (inactive)
